Source: ChEMBL document CHEMBL1681676, “The design and synthesis of novel N-hydroxyformamide inhibitors of ADAM-TS4 for the treatment of osteoarthritis” (Bioorg Med Chem Lett, 2011)

Assays:
[1] = target: T1, A disintegrin and metalloproteinase with thrombospondin motifs 4 (Homo sapiens, UniProt O75173); assay: Inhibition of ADAMTS-4 assessed as substrate cleavage by measuring increase in fluorescence after 16 hrs
T1 sequence (O75173 whole entry): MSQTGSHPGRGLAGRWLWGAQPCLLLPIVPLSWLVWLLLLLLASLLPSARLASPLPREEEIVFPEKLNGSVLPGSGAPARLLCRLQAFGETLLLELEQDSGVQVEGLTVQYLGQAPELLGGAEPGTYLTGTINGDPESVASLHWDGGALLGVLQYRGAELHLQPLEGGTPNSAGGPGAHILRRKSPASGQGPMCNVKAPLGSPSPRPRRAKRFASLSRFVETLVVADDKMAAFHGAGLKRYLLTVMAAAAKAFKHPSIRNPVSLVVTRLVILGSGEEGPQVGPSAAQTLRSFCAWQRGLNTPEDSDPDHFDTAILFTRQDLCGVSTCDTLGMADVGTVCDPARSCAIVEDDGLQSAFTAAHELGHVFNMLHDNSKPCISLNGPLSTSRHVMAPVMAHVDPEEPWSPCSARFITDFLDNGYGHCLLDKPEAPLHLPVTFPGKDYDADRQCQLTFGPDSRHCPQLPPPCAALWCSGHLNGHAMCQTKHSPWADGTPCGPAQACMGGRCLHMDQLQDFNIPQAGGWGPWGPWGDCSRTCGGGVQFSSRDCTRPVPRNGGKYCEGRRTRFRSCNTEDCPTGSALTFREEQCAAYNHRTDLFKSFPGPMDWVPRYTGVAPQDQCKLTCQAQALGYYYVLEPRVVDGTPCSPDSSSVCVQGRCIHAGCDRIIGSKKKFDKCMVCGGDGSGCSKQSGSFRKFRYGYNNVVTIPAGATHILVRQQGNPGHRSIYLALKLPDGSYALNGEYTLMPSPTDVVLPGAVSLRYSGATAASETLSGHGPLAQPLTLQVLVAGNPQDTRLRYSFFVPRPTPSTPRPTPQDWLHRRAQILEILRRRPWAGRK

[2] = Half life in Han Wistar rat at 2 mg/kg, iv and po by LC-MS/MS analysis; format: ADME, organism-based; set-up: dose 2 mg/kg, route oral; conditions: in vivo
[3] = Intrinsic clearance in human liver microsomes
[4] = Oral bioavailability in Han Wistar rat at 3 to 10 mg/kg by LC-MS/MS analysis; format: ADME, organism-based; conditions: in vivo
[5] = Intrinsic clearance in rat hepatocytes measured per 10^6 cells; format: ADME, cell-based, Liver, Hepatocyte
[6] = Clearance in Han Wistar rat at 2 mg/kg, iv by LC-MS/MS analysis; format: ADME, organism-based; set-up: dose 2 mg/kg, route intravenous; conditions: in vivo
[7] = Oral bioavailability in Beagle dog at 1 mg/kg by LC-MS/MS analysis; format: ADME, organism-based, Canis lupus familiaris; conditions: in vivo
[8] = Inhibition of aggrecanase-mediated aggrecan degradation in IL-1 and oncostatin M-stimulated human knee osteoarthritic cartilage after 48 hrs by immunoblot method
[9] = Inhibition of aggrecanase-mediated aggrecan degradation in IL-1-stimulated bovine nasal cartilage explant after 48 hrs by immunoblot method; format: tissue-based, Bos taurus
[10] = target: Disintegrin and metalloproteinase domain-containing protein 17 (Homo sapiens, UniProt P78536); assay: Inhibition of TACE assessed as substrate cleavage by measuring increase in fluorescence after 16 hrs
[11] = test system: Rattus norvegicus; assay: Volume of distribution at steady state in Han Wistar rat at 2 mg/kg, iv and po by LC-MS/MS analysis; format: ADME, organism-based; set-up: dose 2 mg/kg, route oral; conditions: in vivo
[12] = Oral bioavailability in mouse by LC-MS/MS analysis; format: ADME, organism-based; conditions: in vivo
[13] = Oral bioavailability in Han Wistar rat at 2 mg/kg by LC-MS/MS analysis; format: ADME, organism-based; conditions: in vivo
[14] = target: Collagenase 3 (Homo sapiens, UniProt P45452); assay: Inhibition of recombinant human MMP13 assessed as substrate cleavage by measuring increase in fluorescence after 16 hrs
[15] = target: 72 kDa type IV collagenase (Homo sapiens, UniProt P08253); assay: Inhibition of recombinant human MMP2 assessed as substrate cleavage by measuring increase in fluorescence after 16 hrs
[16] = target: Matrix metalloproteinase-14 (Homo sapiens, UniProt P50281); assay: Inhibition of recombinant human MMP14 assessed as substrate cleavage by measuring increase in fluorescence after 16 hrs
[17] = target: T2, Interstitial collagenase (Homo sapiens, UniProt P03956); assay: Inhibition of recombinant human MMP1 assessed as substrate cleavage by measuring increase in fluorescence after 16 hrs
T2 sequence (P03956 whole entry): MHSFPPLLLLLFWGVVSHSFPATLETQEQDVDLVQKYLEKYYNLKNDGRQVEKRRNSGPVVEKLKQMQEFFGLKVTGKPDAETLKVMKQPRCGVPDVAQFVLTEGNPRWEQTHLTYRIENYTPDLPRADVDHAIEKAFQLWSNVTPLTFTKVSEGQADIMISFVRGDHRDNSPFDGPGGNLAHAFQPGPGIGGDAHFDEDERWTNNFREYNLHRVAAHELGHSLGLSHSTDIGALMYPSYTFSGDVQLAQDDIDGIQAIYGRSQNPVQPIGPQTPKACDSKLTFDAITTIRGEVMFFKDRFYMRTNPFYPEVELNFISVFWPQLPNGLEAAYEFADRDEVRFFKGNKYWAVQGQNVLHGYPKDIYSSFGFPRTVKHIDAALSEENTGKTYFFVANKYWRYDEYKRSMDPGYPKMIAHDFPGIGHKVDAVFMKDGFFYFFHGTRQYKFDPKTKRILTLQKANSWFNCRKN

[18] = test system: Canis familiaris; assay: Volume of distribution at steady state in Beagle dog at 1 mg/kg, iv and po by LC-MS/MS analysis; format: ADME, organism-based, Canis lupus familiaris; set-up: dose 1 mg/kg, route oral; conditions: in vivo
[19] = Half life in Beagle dog at 1 mg/kg, iv and po by LC-MS/MS analysis; format: ADME, organism-based, Canis lupus familiaris; set-up: dose 1 mg/kg, route oral; conditions: in vivo
[20] = Clearance in Beagle dog at 1 mg/kg, iv by LC-MS/MS analysis; format: ADME, organism-based, Canis lupus familiaris; set-up: dose 1 mg/kg, route intravenous; conditions: in vivo
[21] = target: Voltage-gated inwardly rectifying potassium channel KCNH2 (Homo sapiens, UniProt Q12809); assay: Inhibition of human ERG
[22] = target: Cytochrome P450 3A4 (Homo sapiens, UniProt P08684); assay: Inhibition of CYP3A4; format: ADME
Sequence of Cytochrome P450 3A4 (P08684 whole entry): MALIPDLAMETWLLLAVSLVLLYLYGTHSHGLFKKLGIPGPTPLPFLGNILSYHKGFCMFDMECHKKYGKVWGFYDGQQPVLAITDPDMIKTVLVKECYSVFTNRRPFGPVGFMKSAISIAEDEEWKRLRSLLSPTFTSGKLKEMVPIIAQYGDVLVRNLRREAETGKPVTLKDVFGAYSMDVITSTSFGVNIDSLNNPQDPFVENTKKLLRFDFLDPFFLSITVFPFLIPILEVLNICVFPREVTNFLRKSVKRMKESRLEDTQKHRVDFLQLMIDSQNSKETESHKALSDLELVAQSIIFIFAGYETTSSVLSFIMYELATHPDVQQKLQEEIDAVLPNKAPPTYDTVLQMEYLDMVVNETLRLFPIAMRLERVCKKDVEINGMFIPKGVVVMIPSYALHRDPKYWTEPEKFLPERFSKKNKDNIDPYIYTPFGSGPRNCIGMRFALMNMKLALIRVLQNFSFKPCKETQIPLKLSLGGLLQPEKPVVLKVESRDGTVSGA

Sequence of 72 kDa type IV collagenase (P08253 whole entry): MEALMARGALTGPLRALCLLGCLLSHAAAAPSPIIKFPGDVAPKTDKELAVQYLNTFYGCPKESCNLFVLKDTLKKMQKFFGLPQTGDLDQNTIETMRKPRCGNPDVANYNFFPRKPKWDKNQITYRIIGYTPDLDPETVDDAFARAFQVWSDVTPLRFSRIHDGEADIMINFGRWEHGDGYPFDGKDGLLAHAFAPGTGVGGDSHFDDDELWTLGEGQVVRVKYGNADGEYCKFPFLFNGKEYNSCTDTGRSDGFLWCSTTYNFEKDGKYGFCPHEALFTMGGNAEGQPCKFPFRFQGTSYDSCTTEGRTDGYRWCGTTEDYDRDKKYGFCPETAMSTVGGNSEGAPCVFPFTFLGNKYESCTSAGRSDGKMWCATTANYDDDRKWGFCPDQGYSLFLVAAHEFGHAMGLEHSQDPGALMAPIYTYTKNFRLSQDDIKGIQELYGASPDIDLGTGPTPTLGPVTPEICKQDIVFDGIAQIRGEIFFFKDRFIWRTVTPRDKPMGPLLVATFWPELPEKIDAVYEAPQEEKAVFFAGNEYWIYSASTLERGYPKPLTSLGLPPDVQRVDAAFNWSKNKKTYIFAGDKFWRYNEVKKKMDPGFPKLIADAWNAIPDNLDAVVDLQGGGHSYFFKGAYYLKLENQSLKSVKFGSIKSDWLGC
Sequence of Disintegrin and metalloproteinase domain-containing protein 17 (P78536 whole entry, the tested form may be a part): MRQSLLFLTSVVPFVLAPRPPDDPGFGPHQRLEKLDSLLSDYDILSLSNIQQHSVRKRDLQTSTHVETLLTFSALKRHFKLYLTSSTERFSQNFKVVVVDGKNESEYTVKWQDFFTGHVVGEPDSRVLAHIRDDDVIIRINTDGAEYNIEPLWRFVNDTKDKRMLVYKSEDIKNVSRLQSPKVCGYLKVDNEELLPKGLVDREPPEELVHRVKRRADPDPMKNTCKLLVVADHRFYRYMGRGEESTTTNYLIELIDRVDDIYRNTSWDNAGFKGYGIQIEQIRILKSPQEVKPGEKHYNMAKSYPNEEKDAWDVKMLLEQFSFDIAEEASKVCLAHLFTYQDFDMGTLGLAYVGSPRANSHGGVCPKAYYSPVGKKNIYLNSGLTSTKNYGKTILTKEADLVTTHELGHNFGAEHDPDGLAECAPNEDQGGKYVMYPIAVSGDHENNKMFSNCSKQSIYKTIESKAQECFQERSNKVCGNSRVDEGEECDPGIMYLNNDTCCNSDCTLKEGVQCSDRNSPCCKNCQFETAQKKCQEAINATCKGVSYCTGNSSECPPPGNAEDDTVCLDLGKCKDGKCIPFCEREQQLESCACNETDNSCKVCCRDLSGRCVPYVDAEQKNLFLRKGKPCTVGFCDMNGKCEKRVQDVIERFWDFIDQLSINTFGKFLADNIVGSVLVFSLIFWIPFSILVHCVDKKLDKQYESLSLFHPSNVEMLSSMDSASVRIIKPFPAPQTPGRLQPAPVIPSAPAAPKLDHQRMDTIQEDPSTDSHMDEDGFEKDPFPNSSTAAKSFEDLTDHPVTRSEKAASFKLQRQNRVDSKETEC
Sequence of Voltage-gated inwardly rectifying potassium channel KCNH2 (Q12809 whole entry): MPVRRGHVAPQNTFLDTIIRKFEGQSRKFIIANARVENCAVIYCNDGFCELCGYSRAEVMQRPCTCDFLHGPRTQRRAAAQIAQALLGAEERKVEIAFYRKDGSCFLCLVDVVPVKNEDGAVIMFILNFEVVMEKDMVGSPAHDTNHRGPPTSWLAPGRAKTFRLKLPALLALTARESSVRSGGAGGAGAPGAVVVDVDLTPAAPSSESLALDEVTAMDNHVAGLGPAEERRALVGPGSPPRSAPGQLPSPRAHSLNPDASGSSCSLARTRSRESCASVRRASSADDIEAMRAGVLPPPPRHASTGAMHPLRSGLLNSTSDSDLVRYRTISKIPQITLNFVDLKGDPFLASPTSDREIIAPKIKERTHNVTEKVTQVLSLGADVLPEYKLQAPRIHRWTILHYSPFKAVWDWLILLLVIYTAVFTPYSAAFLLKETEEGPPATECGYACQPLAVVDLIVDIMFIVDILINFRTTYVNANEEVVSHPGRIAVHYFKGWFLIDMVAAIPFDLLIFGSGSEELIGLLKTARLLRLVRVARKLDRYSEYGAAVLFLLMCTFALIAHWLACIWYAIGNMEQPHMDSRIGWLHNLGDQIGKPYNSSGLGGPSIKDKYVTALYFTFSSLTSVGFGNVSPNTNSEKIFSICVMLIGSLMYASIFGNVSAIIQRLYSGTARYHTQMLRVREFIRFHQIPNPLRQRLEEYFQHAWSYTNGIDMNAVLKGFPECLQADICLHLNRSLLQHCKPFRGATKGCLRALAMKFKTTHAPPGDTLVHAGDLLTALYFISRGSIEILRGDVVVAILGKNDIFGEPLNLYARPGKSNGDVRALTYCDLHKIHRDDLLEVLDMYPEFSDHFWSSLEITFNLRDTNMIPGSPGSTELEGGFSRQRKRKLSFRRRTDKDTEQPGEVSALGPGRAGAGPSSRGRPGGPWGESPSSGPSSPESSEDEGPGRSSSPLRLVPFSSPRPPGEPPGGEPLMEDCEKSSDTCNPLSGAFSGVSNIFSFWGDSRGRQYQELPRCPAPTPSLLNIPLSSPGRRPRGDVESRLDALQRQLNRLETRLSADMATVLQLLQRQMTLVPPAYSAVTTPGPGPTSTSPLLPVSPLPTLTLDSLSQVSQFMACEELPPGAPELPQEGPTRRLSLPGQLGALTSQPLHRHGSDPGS

| SMILES | IC50 [1] [µM] | IC50 [10] [µM] | IC50 [14] [µM] | IC50 [15] [µM] | IC50 [16] [µM] | IC50 [17] [µM] | further results |
| --- | --- | --- | --- | --- | --- | --- | --- |
| C[C@@H](C[C@@](C)(CS(=O)(=O)N1CCN(CCc2ccc(Cl)cc2Cl)CC1)N(O)C=O)c1ncc(F)cn1 | 0.0038 | – | – | – | – | – | half-life [2]: 5.6 h; microsomal CLint [3]: 54 µL/min/mg; bioavailability [4]: 30%; hepatocyte CLint [5]: 10.2 µL/min/1e6 cells; clearance [6]: 14 mL/min/kg |
| Cc1noc(C)c1CCC1CCN(S(=O)(=O)C[C@](C)(C[C@H](C)c2ncc(F)cn2)N(O)C=O)CC1 | – | 0.25 | > 8.1 | > 6.3 | > 8.9 | > 19 | bioavailability [7]: 20%; IC50 [8]: 0.243 µM; IC50 [9]: 0.31 µM; Vdss [11]: 7.4 L/kg; bioavailability [12]: 34%; half-life [2]: 11 h; bioavailability [13]: 3.5%; Vdss [18]: 9.21 L/kg; half-life [19]: 11.3 h; clearance [20]: 20 mL/min/kg; clearance [6]: 11 mL/min/kg |
| Cc1cnc(C)c(CCC2CCN(S(=O)(=O)C[C@](C)(C[C@H](C)c3ncc(F)cn3)N(O)C=O)CC2)c1 | 0.0019 | 1.4 | 27 | 35 | > 8 | 55 | – |
| C[C@@H](C[C@@](C)(CS(=O)(=O)N1CCC(CCc2ccc(S(C)(=O)=O)cc2Cl)CC1)N(O)C=O)c1ncc(F)cn1 | 0.00057 | 5.5 | 0.35 | 0.18 | > 3.6 | > 70 | – |
| Cc1nsc(C)c1CCC1CCN(S(=O)(=O)C[C@](C)(C[C@H](C)c2ncc(F)cn2)N(O)C=O)CC1 | 0.00026 | – | 4.6 | 2.4 | 2.6 | – | – |
| Cc1cc(F)ccc1CCC1CCN(S(=O)(=O)C[C@](C)(C[C@H](C)c2ncc(F)cn2)N(O)C=O)CC1 | 0.00018 | 0.021 | 0.53 | 0.12 | 0.16 | > 8.1 | – |
| C[C@@H](C[C@@](C)(CS(=O)(=O)N1CCC(OCc2ccc(Cl)cc2Cl)CC1)N(O)C=O)c1ncc(F)cn1 | – | – | 0.43 | – | 0.43 | > 10 | half-life [2]: 0.3 h; microsomal CLint [3]: 107 µL/min/mg; IC50 [21]: 8 µM; IC50 [22]: > 10 µM; bioavailability [4]: 0%; hepatocyte CLint [5]: 56.9 µL/min/1e6 cells; clearance [6]: 130 mL/min/kg |
| C[C@@H](C[C@@](C)(CS(=O)(=O)N1CCC(CCc2ccc(C(F)(F)F)cc2Cl)CC1)N(O)C=O)c1ncc(F)cn1 | 0.00048 | – | 0.26 | 0.17 | 0.9 | > 100 | – |
| Cc1cc(C(F)(F)F)ccc1CCC1CCN(S(=O)(=O)C[C@](C)(C[C@H](C)c2ncc(F)cn2)N(O)C=O)CC1 | 0.00049 | 0.42 | 2.3 | 0.35 | 4.6 | > 10 | – |
| C[C@@H](C[C@@](C)(CS(=O)(=O)N1CCC(CCc2ncc(C(F)(F)F)cc2Cl)CC1)N(O)C=O)c1ncc(F)cn1 | 0.0042 | 27 | > 16 | 2.8 | > 18 | > 70 | – |
| Cc1cc(Cl)ccc1CCC1CCN(S(=O)(=O)C[C@](C)(C[C@H](C)c2ncc(F)cn2)N(O)C=O)CC1 | 0.00036 | – | 0.37 | 0.53 | 0.36 | > 8.5 | – |
| C[C@@H](C[C@@](C)(CS(=O)(=O)N1CCN(c2ccc(F)cc2)CC1)N(O)C=O)c1ncc(F)cn1 | 0.0073 | – | 0.0076 | – | 0.0076 | 0.98 | IC50 [21]: 21 µM; IC50 [22]: > 10 µM |
| C[C@@H](C[C@@](C)(CS(=O)(=O)N1CCC(NCc2ccc(Cl)cc2Cl)CC1)N(O)C=O)c1ncc(F)cn1 | 2.2 | – | – | – | – | – | – |
| Cc1cc(CCC2CCN(S(=O)(=O)C[C@](C)(C[C@H](C)c3ncc(F)cn3)N(O)C=O)CC2)c(C)cn1 | 0.00043 | 0.23 | 14 | 12 | 17 | > 100 | – |
| Cc1ccc(C)c(CCC2CCN(S(=O)(=O)C[C@](C)(C[C@H](C)c3ncc(F)cn3)N(O)C=O)CC2)c1 | 0.00048 | 0.022 | 23 | 4.2 | 4.2 | > 10 | – |
| Cc1cc(CCC2CCN(S(=O)(=O)C[C@](C)(C[C@H](C)c3ncc(F)cn3)N(O)C=O)CC2)n(C)n1 | 0.0054 | 2.8 | 6.7 | 26 | 29 | > 10 | – |
| C[C@@H](C[C@@](C)(CS(=O)(=O)N1CCC(CCc2ccc(F)cc2Br)CC1)N(O)C=O)c1ncc(F)cn1 | 0.00048 | – | 2.3 | 1.7 | 0.39 | > 8 | – |
| C[C@@H](C[C@@](C)(CS(=O)(=O)N1CCC(CCc2ccc(C(F)(F)F)cc2C2CC2)CC1)N(O)C=O)c1ncc(F)cn1 | 0.00094 | 3.2 | 17 | > 9.1 | 18 | > 10 | – |
| C[C@@H](C[C@@](C)(CS(=O)(=O)N1CCC(CCc2ccc(F)cc2C(F)(F)F)CC1)N(O)C=O)c1ncc(F)cn1 | 0.00052 | 0.019 | 16 | 1.9 | 3.6 | 9.7 | – |
| Cc1cc(C(F)(F)F)cnc1CCC1CCN(S(=O)(=O)C[C@](C)(C[C@H](C)c2ncc(F)cn2)N(O)C=O)CC1 | 0.0021 | 24 | 6.1 | 2.5 | 40 | > 79 | – |
| C[C@@H](C[C@@H](CS(=O)(=O)N1CCC(OCc2ccc(Cl)cc2Cl)CC1)N(O)C=O)c1ncc(F)cn1 | 0.001 | – | 0.18 | – | 0.18 | 9.7 | – |
| C[C@@H](C[C@@](C)(CS(=O)(=O)N1CCC(CCc2cc(F)ccc2Cl)CC1)N(O)C=O)c1ncc(F)cn1 | 0.0028 | – | 0.57 | 0.5 | 0.056 | > 9.6 | – |
| C[C@@H](C[C@@](C)(CS(=O)(=O)N1CCC(CCc2ccc(Cl)cc2Cl)CC1)N(O)C=O)c1ncc(F)cn1 | 0.0011 | – | – | – | – | – | half-life [2]: 14.9 h; microsomal CLint [3]: 6.9 µL/min/mg; bioavailability [4]: 38%; hepatocyte CLint [5]: 7.6 µL/min/1e6 cells; clearance [6]: 20 mL/min/kg |
| Cc1cc(C)c(CCC2CCN(S(=O)(=O)C[C@](C)(C[C@H](C)c3ncc(F)cn3)N(O)C=O)CC2)cn1 | 0.00068 | 3 | > 4.5 | 2.2 | > 3.7 | > 100 | – |
| C[C@@H](C[C@@H](CS(=O)(=O)N1CCN(c2ccc(F)cc2)CC1)N(O)C=O)c1ncc(F)cn1 | 0.0014 | – | 0.011 | – | 0.011 | > 1.1 | IC50 [21]: 26 µM; IC50 [22]: 1.4 µM |
